Data as given in US7642283B2, “Mitochrondrial permeability transition pore affinity labels and modulators” (Hoffmann-La Roche Inc., priority 2003, dated 2010).
pEC50: −log10 of the molar value. Where two headings read alike, the source gives them in different places.

Key:
VDAC1 = molecular target: T1, VDAC1 (Rattus norvegicus, UniProt Q9Z2L0); test: Affinity labeling of rat mitochondria with the tritiated spiro compound, SDS-PAGE and fluorography; format: binding; conditions: rat brain mitochondria; 10 nM radiolabel
T1 construct: from tissue; host or cells: Percoll-purified rat brain and liver mitochondria
Method: FIG. 6: Affinity-labeling of isolated rat brain (A) and liver (B) mitochondria. Mitochondrial preparations were incubated in the presence of 10 nM Spiro[cyclopentane-1,5′-[5H]dibenzo[a,d]cyclohepten]-2-one,10′,11′-t2-10′,11′-dihydro-3-methylene- for 15 min at 25° C. in presence or absence of various concentrations of Spiro[cyclopentane-1,5′-[5H]dibenzo[a,d]cyclohepten]-2-one,10′,11′-dihydro-3-methylene-(unlabeled). Samples were submitted to SDS-PAGE (see Experimental Procedures section for details) and fluorography. The fluorograms of the gels are shown. The molecular mass scale (kDa) is shown in the ordinate.
(§1) FIG. 8: (A) Effect of monobromobimano (MBBM) and phenylarsino oxide (PhAO) on VDAC1 labeling by Spiro[cyclopentane-1,5′-[5H]dibenzo[a,d]cyclohepten]-2-one,10′,11′-t2-10′,11′-dihydro-3-methylene- in rat brain mitochondria. Experimental conditions were as in the legend to FIG. 5. (B) Effect of various MPTP inhibitors, atractyloside (ATR) and DIDS on VDAC1 labeling by Spiro[cyclopentane-1,5′-[5H]dibenzo[a,d]cyclohepten]-2-one,10′,11′-t2-10′,11′-dihydro-3-methylene- in rat brain mitochondria. Mitochondria were exposed to DIDS for 5 min before rinsing for removal of the free agent and labeling with Spiro[cyclopentane-1,5′-[5H]dibenzo[a,d]cyclohepten]-2-one,10′,11′-t2-10′,11′-dihydro-3-methylene.
Percoll purified mitochondria (˜30 μg protein per sample) were incubated in the presence of 10 nM Spiro[cyclopentane-1,5′-[5H]dibenzo[a,d]cyclohepten]-2-one,10′,11′-t2-10′,11′-dihydro-3-methylene- in a final volume of 200 μl. After incubation for 15 min at 25° C., samples were centrifuged at 25000×g and the mitochondrial pellet rinsed twice with buffer. Samples were then solubilized in sample buffer containing β-mercaptoethanol (1 h at 37° C.) and subjected to SDS-polyacrylamide gel-electrophoresis (SDS-PAGE) on Tris-glycine Novex pre-cast mini-gels (12% monomer concentration, Invitrogen BV, The Netherlands). After Coomassie Blue staining, gels were processed for fluorography by soaking in Amplify™ (Amersham Biosciences), drying and exposing to X-ray BioMax MS film with BioMax MS intensifying screen (Kodak) at −80° C. for the appropriate time.
as §1, with “Effect” for “FIG. 8: (A) Effect”, “monobromobimano” for “monobromobimano (MBBM)”, “oxide” for “oxide (PhAO)”, “Example 12 (FIG. 8A).” for “the legend to FIG. 5. (B)”, “Spiro[cyclopentane-1,5′-[5H]dibenzo[a,d]cyclohepten]-2-one,10′,11′-t2-10′,11′-dihydro-3-methylene (FIG. 8B).” for “Spiro[cyclopentane-1,5′-[5H]dibenzo[a,d]cyclohepten]-2-one,10′,11′-t2-10′,11′-dihydro-3-methylene.”

MPTP [1] = test: Ca2+-induced depolarisation (membrane potential, Rhodamine-123) of rat brain mitochondria; format: biochemical; conditions: 50 μM Ub5 alone
Method: (B) Ca^2+-induced depolarisation of rat brain mitochondria. The medium used was as in the legend to FIG. 4, except that 0.5 μM Rhodamine-123 was added instead of Calcium Green-5N, and MPTP was induced by addition of 20 μM Ca^2+. Trace a, control (Ca^2+ alone), b, 300 nM Spiro[cyclopentane-1,5′-[5H]dibenzo[a,d]cyclohepten]-2-one,10′,11′-dihydro-3-methylene-, c, 300 nM Spiro[cyclopentane-1,5′-[5H]dibenzo[a,d]cyclohepten]-2-one,10′,11′-dihydro-3-methylene- and 50 μM Ub5.
The effect of Spiro[cyclopentane-1,5′-[5H]dibenzo[a,d]cyclohepten]-2-one,10′,11′-dihydro-3-methylene- at inhibiting MPTP was also investigated in mitochondria isolated from rat forebrain. […] Due to the difficulties mentioned above, the effect of Spiro[cyclopentane-1,5′-[5H]dibenzo[a,d]cyclohepten]-2-one,10′,11′-dihydro-3-methylene- on MPTP in brain mitochondria was more accurately investigated by subjecting mitochondria isolated from rat forebrain to a series of Ca^2+ pulses (5 μM, ˜150 nmol mg protein^−1) and by monitoring extramitochondrial Ca^2+ or using fluororescent probes. […] Virtually identical results were obtained from experiments where Δψm was monitored after a series of Ca^2+ additions (5 μM each). Each Ca^2+ additions caused a reversible decreases in Δψm, until MPTP opening completely collapsed Δψm and no further fluorescence increase could observed after addition of the protonophore FCCP.

[2] = tested on: mitochondrial respiration; test: Mitochondrial respiration (oxygen consumption); format: biochemical; conditions: at concentrations completely blocking MPTP
Method: Isolated liver mitochondria (˜0.5 mg protein ml^−1) were incubated in a batch mode in the presence of 20 nM [^3H]TPP ([^3H]Tetraphenylphosphonium ([^3H]TPP, 24-29 Ci/mmol) from Amersham Biosciences, Switzerland) for 15 min at 25° C. Aliquots (100 μl) of the mixture were then distributed into 96-well plates containing 100 μl of the test compound and the incubation prolonged for 15 min at 25° C. Samples were then filtered through 0.3% (v/v) polyethyleneimmine-treated GF/B glass fiber filters using a 96-channel cell harvester and the filters washed twice with 1 ml of buffer. Fifty μl of MICROSCINT 40 (Packard) were then added to each well, before counting for radioactivity in a TopCount scintillation counter (Packard). Non-specific uptake was determined in the presence of 1 mM unlabeled TPP or 1 μM carbonylcianide-p-trifluoromethoxyphenyl hydrazone (FCCP). Mitochondrial oxygen consumption was measured polarographically at 25° C. using a Clark-type electrode.
Compounds found to inhibit MPTP where then counter-screened using uptake of the potentiometric probe [^3H]-TPP (Hoek, J. B., Nicholls, D. G. & Williamson, J. R. (1980) J. Biol. Chem. 255, 1458-1564) for determining in a semi-quantitative, but rapid way whether they interfered with mitochondrial respiration (e.g. protonophores). […]

Cyp-D = Cyp-D (Homo sapiens, UniProt P30405); test: Cyp-D peptidyl prolyl cis-trans isomerase enzymatic activity; format: biochemical; conditions: at concentrations completely blocking MPTP
MPTP [3] = molecular target: T2, MPTP (Rattus norvegicus, UniProt Q9Z2L0); test: Ca2+-retention capacity of rat brain mitochondria (Calcium Green-5N); format: biochemical
T2 construct: other: n=2; glutamate/malate; other: glutamate/malate; 20 min; mean±SEM; unit not given; other: 300 nM; relieved by 50 μM Ub5
Method: FIG. 4: (A) Effect of Spiro[cyclopentane-1,5′-[5H]dibenzo[a,d]cyclohepten]-2-one,10′,11′-dihydro-3-methylene- and CsA on Ca^2+-retention capacity of rat brain mitochondria. The incubation medium contained 0.2 M sucrose, 10 mM Tris-Mops, pH 7.4, 1 mM Pi-Tris, 5 μM EGTA and 5 mM glutamate/2.5 mM malate, buffered to pH 7.4 with Tris, containing 0.01% (w/v) bovine serum albumin and 1 μM Calcium Green-5N. The final volume was 2.5 ml. Trace (a) control, (b) 1 μM CsA, (c) 1 μM Spiro[cyclopentane-1,5′-[5H]dibenzo[a,d]cyclohepten]-2-one,10′,11′-dihydro-3-methylene- and (d) 1 μM CsA plus 1 μM Spiro[cyclopentane-1,5′-[5H]dibenzo[a,d]cyclohepten]-2-one,10′,11′-dihydro-3-methylene-. Each fluorescence spike corresponds to addition of 5 μM Ca^2+. (B) Comparison of Ca^2+-retention capacity in liver (a) and brain mitochondria (b).
Effect of Spiro[cyclopentane-1,5′-[5H]dibenzo[a,d]cyclohepten]-2-one,10′,11′-dihydro-3-methylene- and CsA on Ca^2+-retention capacity of rat brain mitochondria (FIG. 4). Measurement of extramitochondrial Ca^2+ was determined using a Perkin-Elmer LS-50B fluorimeter controlled by the FL WinLab computer program. […] The final volume was 2.5 ml and the cuvette was thermostated at 25° C. Brain mitochondria were then subjected to a train of 5 μM Ca^2+ additions (˜150 nmol mg protein^−1). Extramitochondrial Ca^2+ was monitored at excitation/emission wavelengths of 505-535. […] The Ca^2+-retention capacity in liver (a) and brain mitochondria (b) were also compared (FIG. 4B).
The effect of Spiro[cyclopentane-1,5′-[5H]dibenzo[a,d]cyclohepten]-2-one,10′,11′-dihydro-3-methylene- at inhibiting MPTP was also investigated in mitochondria isolated from rat forebrain. […] Due to the difficulties mentioned above, the effect of Spiro[cyclopentane-1,5′-[5H]dibenzo[a,d]cyclohepten]-2-one,10′,11′-dihydro-3-methylene- on MPTP in brain mitochondria was more accurately investigated by subjecting mitochondria isolated from rat forebrain to a series of Ca^2+ pulses (5 μM, ˜150 nmol mg protein^−1) and by monitoring extramitochondrial Ca^2+ or using fluororescent probes.

MPTP [4] = tested on: T3, MPTP; test: Ca2+-induced swelling in deenergized liver mitochondria; format: biochemical; conditions: n=2; 30 min after addition of 200 μM Ca2+; read-out: EC50 of MPTP inhibition in deenergized mitochondria
T3 construct: other: n=2; 30 min after addition of 200 μM Ca2+

MPTP (Rattus norvegicus) = molecular target: T4, MPTP (Rattus norvegicus); test: Ca2+-induced swelling (MPTP) in rat liver mitochondria energised with succinate; format: biochemical; conditions: succinate 5 mM + 2 μM rotenone; 80 μM Ca2+; ΔA540 20 min after CaCl2
T4 construct: other: n=2; glutamate/malate; other: glutamate/malate; 20 min; mean±SEM; unit not given; other: 300 nM; relieved by 50 μM Ub5
Method: Ca^2+-induced swelling (sucrose permeability) in energized mitochondria was assayed at 25° C. in 96 well-plates by measuring changes in absorbance at 540 nm by means of a […]ax 250 spectrophometer controlled by the SOFTmax PRO™ software (Molecular Devices, Switzerland). The incubation medium contained 0.2 M sucrose, 10 mM Tris-Mops, pH 7.4, 1 mM Pi-Tris, 5 μM EGTA. Succinate (5 mM, in the presence of 2 μM rotenone) or 5 mM glutamate/2.5 mM malate, buffered to pH 7.4 with Tris, were used as respiratory substrates. After a short (˜5 min) preincubation in presence or absence of test compounds, mitochondrial swelling was induced by the addition of 20 μl CaCl2 at final concentrations ranging from 40 to 80 μM, depending on respiratory substrates and Ca^2+ sensitivity of the mitochondrial preparation. The final incubation volume was 0.2 ml and the concentration of mitochondria was ˜0.5 mg mitochondrial protein ml^−1. Swelling kinetics was followed for up to 30 min at 25° C. Absorbance readings were taken every 12 sec and the plate was shaken for 3 s between readings to ensure oxygen diffusion during the experiment and to avoid sedimentation of the mitochondria.
The incubation medium contained 0.2 M sucrose, 10 mM Tris-Mops, pH 7.4, 1 mM Pi-Tris, 5 μM EGTA.

[5] = Ca2+ pulses, rat brain mitochondria

T1 sequence (Q9Z2L0 whole entry): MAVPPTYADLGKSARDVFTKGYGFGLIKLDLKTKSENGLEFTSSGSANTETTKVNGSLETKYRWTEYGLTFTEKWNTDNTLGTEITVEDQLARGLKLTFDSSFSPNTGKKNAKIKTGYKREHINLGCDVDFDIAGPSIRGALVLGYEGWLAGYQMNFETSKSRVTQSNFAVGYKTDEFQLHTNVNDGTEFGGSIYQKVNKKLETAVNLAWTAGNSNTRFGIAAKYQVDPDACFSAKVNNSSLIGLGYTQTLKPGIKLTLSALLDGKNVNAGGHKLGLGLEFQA
T2 sequence (Q9Z2L0 2-283): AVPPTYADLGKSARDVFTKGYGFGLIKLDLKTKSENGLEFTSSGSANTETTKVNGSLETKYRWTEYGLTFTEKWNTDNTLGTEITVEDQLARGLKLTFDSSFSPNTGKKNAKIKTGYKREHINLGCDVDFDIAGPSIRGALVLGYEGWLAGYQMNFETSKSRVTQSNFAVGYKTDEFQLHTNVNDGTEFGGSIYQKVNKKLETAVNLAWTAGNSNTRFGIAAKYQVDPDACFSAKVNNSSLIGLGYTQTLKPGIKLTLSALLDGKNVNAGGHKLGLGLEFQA
T4 sequence (Q9Z2L0 2-283): as above
Cyp-D, sequence (P30405 30-207): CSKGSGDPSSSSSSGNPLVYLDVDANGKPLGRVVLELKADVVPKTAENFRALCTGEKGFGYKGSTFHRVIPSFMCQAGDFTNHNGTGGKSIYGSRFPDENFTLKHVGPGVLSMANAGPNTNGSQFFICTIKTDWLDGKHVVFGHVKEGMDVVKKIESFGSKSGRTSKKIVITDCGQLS

Row | SMILES | Effect on VDAC1 labeling (incorporation of radioactivity) by the tritiated spiro compound (VDAC1) | Additive effect when combined with the spiro compound (Example 2) (MPTP [3]; [5]) | pEC50 (MPTP (Rattus norvegicus)) | further results
1 | C=C1[C@@H]2CC[C@H]3[C@]4(C)C[C@H](O[C@@H]5O[C@H](CO)[C@@H](OS(=O)(=O)O)[C@H](OS(=O)(=O)O)[C@H]5OC(=O)CC(C)C)C[C@@H](C(=O)O)[C@H]4CC[C@]3(C2)[C@H]1O [ATR, atractyloside] | did not affect |  |  | 
2 | COC1=C(OC)C(=O)C(C/C=C(\C)CC/C=C(\C)CC/C=C(\C)CC/C=C(\C)CCC=C(C)C)=C(C)C1=O [Ub5, ubiquinone5, reference compound] |  |  |  | Effect of Ub5 alone (MPTP [1]): no effect
3 | C=C1COc2ccc(Br)cc2C1=O [6-bromo-3-methylene-chroman-4-one] | inhibited | no additive effect |  | Inhibition of mitochondrial respiration (basal, ADP-induced and uncoupled) [2]: did not inhibit; Inhibition of Cyp-D peptidyl prolyl cis-trans isomerase activity (Cyp-D): did not inhibit; pEC50 (MPTP [4]): 5.55
4 | O=S(=O)(O)c1cc(N=C=S)ccc1C=Cc1ccc(N=C=S)cc1S(=O)(=O)O [DIDS, 4,4′-diisothiocyanatostilbene-2,2′-disulfonic acid] | appeared to inhibit |  |  | 
5 | CCN(CC)CC1COc2ccc(Br)cc2C1=O (stereo not shown) [6-bromo-3-diethylaminomethyl-chroman-4-one] | inhibited |  |  | 
6 | CO[C@H](C/C=C\C=C\CC/C=C/C[C@H](C)/C=C/C(=C\C(=O)O)CC(=O)O)/C(C)=C\C=C(/C)C(=O)O [Bongkrekic acid] | did not affect | additive | 4.94 | 
7 | COC1=C(OC)C(=O)C(C)=CC1=O [Ubiquinone0] | Inhibition | no such additive effect | 4.63 | pEC50 (MPTP [4]): 5.31
8 | CN1CCN(CCCN2c3ccccc3Sc3ccc(C(F)(F)F)cc32)CC1 [Trifluoroperazine] | did not affect |  | 5.03 | Additive effect when combined with the spiro compound (Example 2) (MPTP [3]): additive
